Assay results from PMC7377474, “Preclinical characterization of CPL302-253, a selective inhibitor of PI3Kδ, as the candidate for the inhalatory treatment and prevention of Asthma” (PLoS ONE, 2020).
“And” between values parts separate entries of the source, which are not always exact repeats. Equal entries are not always repeated.

Key:
[1] = target: T1, PI3Kδ (Homo sapiens, UniProt O00329); assay: ADP-Glo Kinase Assay; format: biochemical
T1 construct: purchased Merck Millipore
Experimental: The potency and selectivity of CPL302-253 against different isotypes of class I PI3K were assessed using ADP-Glo Kinase Assay (Promega) according to manufacturer’s protocol. PI3Kα, PI3Kβ, PI3Kδ, PI3Kγ were purchased from Merck Millipore. The inhibition of examined kinases activity was evaluated by measuring their ability to converse ATP to ADP in the presence of decreasing doses of tested compound (from 400 μM to 0,00004 μM). Kinases were mixed with 1 mM PIP2:PS substrate (Phosphoinositol-4,5-bisphosphate (PIP2) lipid vesicles with phosphoserine (PS), Thermofisher Scientific) and 30 μM ATP in an assay buffer (50 mM HEPES pH 7.5,50 mM NaCl, 3 mM MgCl2, 25 μg/ml BSA). The mixture was incubated in the dark for 1 h at 25°C (PI3Kα and PI3Kδ) or at 30°C (PI3Kβ, PI3Kγ). Next ADP-Glo reagent 1 was added to stop the reaction and remove any remaining ATP. The samples were incubated for 40 min at 25°C. Subsequently the ADP-Glo reagent 2 was added and reactions were incubated for 40 min at 25°C. Finally, luminescence was assessed and the IC50 was calculated.

[2] = target: T2, MEK5 (Homo sapiens, UniProt Q13163); assay: KINOMEScan single concentration; format: binding; conditions: 1 μM
T2 construct: purchased Discoverex (KINOMEscan service)
T2 sequence (Q13163 whole entry): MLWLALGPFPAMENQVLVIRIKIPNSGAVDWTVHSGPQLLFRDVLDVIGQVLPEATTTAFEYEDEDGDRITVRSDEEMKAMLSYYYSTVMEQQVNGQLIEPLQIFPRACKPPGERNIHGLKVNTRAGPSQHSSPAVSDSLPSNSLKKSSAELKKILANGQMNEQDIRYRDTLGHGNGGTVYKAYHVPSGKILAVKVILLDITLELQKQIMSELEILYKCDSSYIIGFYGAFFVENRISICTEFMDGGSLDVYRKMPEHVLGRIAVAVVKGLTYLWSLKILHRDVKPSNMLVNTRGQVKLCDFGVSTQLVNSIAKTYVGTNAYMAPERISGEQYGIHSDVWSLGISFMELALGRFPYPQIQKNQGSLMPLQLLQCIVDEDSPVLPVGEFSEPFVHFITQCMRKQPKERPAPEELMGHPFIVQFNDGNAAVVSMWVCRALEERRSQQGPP
Experimental: (§1) The inhibitor-kinase binding affinity was assessed in KINOMEscan™ assay (Discoverex) according to service provider’s protocol. In brief, in this binding assay the studied compound in solution is incubated with DNA-tagged kinase and kinase active-site directed ligand bound to the beads. The compound competes for binding to kinase with the immobilized ligand. After incubation beads are removed from the solution and kinase bound to ligand is quantified by qPCR. The strength of compound binding is determined based on its ability to block kinase-ligand binding. 11-point 3-fold serial dilution of CPL302-253 was used in order to determine its binding constants (Kd) against different isotypes of class I PI3K. The single concentration of CPL302-253 was used in order to determine its specificity in abroad panel of 468 human kinases. The measure of compounds affinity to each kinase in the panel was the percentage of kinase activity inhibition by tested ligand in comparison to the control.

[3] = target: T3, PIK3CA(H1047Y) (Homo sapiens, UniProt P42336, H1047Y); assay: KINOMEScan single concentration; format: binding; conditions: 1 μM
T3 construct: purchased Discoverex (KINOMEscan service)
T3 sequence (P42336 whole entry H1047Y): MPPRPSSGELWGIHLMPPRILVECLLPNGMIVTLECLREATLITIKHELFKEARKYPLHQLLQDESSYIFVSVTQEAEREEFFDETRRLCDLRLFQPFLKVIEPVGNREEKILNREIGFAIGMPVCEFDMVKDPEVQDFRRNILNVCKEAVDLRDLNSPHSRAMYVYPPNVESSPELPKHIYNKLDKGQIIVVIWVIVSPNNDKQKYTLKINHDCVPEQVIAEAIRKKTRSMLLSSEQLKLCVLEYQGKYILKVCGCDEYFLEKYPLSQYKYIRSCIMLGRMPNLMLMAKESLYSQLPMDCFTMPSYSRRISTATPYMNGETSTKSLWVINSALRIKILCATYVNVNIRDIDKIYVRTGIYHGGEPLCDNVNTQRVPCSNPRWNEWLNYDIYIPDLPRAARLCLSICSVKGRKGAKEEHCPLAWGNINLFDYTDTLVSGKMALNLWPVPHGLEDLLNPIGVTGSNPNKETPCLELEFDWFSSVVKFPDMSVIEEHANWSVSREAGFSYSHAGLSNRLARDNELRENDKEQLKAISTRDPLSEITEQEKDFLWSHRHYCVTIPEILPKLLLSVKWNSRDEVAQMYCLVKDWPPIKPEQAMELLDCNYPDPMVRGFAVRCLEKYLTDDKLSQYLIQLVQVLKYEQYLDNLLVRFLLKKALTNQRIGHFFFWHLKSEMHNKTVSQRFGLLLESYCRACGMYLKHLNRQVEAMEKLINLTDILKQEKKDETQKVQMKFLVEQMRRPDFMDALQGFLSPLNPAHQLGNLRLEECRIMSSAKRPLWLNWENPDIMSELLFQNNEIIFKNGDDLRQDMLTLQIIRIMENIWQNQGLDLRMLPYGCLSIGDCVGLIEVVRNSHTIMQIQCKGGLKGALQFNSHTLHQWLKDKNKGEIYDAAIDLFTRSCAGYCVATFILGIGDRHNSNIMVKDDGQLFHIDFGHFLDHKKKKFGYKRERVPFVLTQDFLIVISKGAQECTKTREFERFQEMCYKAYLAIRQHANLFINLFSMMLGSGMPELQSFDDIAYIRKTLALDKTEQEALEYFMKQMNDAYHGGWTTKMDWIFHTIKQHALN
Experimental: as §1

[4] = target: T4, PIK3CA(M1043I) (Homo sapiens, UniProt P42336, M1043I); assay: KINOMEScan single concentration; format: binding; conditions: 1 μM
T4 construct: purchased Discoverex (KINOMEscan service)
T4 sequence (P42336 whole entry M1043I): as the sequence (P42336 whole entry H1047Y) above, with M1043I, Y1047H counted along it
Experimental: as §1

[5] = tested on: CD19 B cells and PBMC stimulated with αIgM and TCR ligands; assay: BioMAP profiling, BT system; format: cell-based, human
Experimental: BioMap Profiling study was performed by DiscovereX according to service provider’s protocol. In brief cultures or co-cultures of human primary cells were treated with sets of stimulators specific for cell subsets. […] The expression of biomarkers specific for each system was measured by ELISA and other techniques. The results are shown as log-transformed ratio of the biomarker readouts for the drug-treated sample to vehicle controls. The grey area parallel to the x-axis indicates the 95% significance region calculated based on historical vehicle controls. […]

[6] = tested on: A549 cells co-cultured with CD8 T cells; assay: A549 CD8 T cell co-culture, IL-33 expression; format: cell-based, human; conditions: 1 μM, 72 h
Experimental: A549 cells were seeded into 48-well plate. CD8 T cells were isolated from frozen human PBMC using EasySep Human CD8 T cell Isolation Kit (StemCell Technologies) according to manufacturer’s protocol. A549 were co-cultured with CD8 T cells at 1 to 5 ratios for 72 h. In some cultures, CD8 cells were activated with Human T Cell Activation/Expansion Kit (Miltenyibiotec) according to manufacturer’s protocol. After 72h CD8 cells were removed by rinsing with PBS. Adherent A549 cells were suspended in 100 μl RIPA and IL-33 was assessed in cell lysates using IL-33 Human Uncoated ELISA Kit (Invitrogen). Due to high variability in cell activation the data were normalized (measure for each experimental condition was divided by average of measures for all experimental conditions in the experiment).

[7] = tested on: neutrophils; assay: Neutrophil ROS production; format: cell-based, human
Experimental: Neutrophils were isolated using EasySep Direct Human Neutrophil Isolation Kit (StemCell Technologies) from fresh whole blood of healthy donors according to manufacturer’s protocol. Cells were cultured in AIM V medium (Gibco). Cells were loaded for 30 min at 37°C in humidified incubator in the presence of 5% CO2 with DCFDA (2’,7’–dichlorofluorescein diacetate), a fluorescent ROS indicator. Subsequently neutrophils were treated for 15 min with CPL302-253 and dexamethasone. In the next step 20 ng/ml of human GM-CSF (StemCell Technologies) was added to prime cells. 15 min later 1 μg/ml LPS from E. coli O55:B5 (Sigma-Aldrich) was added to induce ROS generation. The ROS accumulation in the neutrophils was assessed on FACSCalibur 2 h after LPS stimulation.

T1 sequence (O00329 whole entry): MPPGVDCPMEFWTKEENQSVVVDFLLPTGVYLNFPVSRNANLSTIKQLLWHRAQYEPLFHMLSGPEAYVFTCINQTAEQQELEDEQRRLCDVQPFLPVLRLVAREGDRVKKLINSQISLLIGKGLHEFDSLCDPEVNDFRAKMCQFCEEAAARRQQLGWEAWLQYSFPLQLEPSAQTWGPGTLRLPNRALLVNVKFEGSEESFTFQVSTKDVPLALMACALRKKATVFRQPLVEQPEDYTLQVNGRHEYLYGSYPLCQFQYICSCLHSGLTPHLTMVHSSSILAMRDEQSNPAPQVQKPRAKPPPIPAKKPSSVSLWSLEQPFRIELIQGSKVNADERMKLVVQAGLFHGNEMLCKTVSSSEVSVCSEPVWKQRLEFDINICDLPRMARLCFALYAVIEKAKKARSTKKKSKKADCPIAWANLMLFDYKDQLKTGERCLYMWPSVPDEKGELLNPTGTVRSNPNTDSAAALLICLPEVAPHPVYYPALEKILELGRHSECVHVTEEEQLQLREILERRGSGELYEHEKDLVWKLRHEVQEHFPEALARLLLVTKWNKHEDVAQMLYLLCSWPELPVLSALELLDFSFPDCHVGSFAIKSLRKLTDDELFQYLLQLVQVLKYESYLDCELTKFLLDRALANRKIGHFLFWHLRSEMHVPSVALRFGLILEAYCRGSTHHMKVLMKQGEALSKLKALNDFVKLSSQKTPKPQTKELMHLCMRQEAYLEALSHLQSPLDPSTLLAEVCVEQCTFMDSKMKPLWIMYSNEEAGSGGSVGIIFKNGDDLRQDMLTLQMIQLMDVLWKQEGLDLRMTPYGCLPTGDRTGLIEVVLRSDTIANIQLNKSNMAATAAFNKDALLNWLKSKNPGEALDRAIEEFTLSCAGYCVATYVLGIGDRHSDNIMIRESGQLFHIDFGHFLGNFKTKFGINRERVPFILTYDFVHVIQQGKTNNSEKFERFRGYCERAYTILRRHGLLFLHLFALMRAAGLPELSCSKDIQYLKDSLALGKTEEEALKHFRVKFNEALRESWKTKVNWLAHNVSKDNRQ
T1 sequence (P27986 whole entry partner): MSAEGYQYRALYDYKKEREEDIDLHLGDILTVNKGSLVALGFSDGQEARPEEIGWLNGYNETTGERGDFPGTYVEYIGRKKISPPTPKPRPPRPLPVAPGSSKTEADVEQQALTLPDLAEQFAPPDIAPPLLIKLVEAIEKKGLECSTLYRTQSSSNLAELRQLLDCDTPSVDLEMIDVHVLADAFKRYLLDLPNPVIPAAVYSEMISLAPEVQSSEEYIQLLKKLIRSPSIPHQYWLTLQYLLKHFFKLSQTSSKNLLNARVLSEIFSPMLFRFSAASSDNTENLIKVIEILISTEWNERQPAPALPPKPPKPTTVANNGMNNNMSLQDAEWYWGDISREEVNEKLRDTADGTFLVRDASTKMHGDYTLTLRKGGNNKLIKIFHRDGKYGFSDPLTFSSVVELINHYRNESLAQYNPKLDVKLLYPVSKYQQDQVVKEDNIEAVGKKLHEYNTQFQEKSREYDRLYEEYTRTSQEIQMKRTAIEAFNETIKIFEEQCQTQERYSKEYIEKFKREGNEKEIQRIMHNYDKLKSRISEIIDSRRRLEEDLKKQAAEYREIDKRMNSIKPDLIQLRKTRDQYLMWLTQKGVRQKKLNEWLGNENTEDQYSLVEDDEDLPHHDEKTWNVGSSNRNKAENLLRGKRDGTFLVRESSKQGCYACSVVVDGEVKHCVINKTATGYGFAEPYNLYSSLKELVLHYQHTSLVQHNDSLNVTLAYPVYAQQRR

In the case of CC(C)(C)N1CCN(Cc2cc3nc(-c4cncc5[nH]ccc45)cc(N4CCOCC4)n3n2)CC1 [CPL302-253], the IC50 [1] is reported as 12.2 nM, the “Remaining binding (%)” value [2] is reported as 35% and the “Remaining binding (%)” value [3] is reported as 0%. The “Remaining binding (%)” value [4] was 100%, the “expression of IL-2, IL-6, IL-17 and TNFα in BT system” value [5] was “inhibits the expression of all of listed markers in BT system” and the “proliferation of B cells” value [5] was “blocked proliferation of B cells”. The “IL-33 expression, normalized (Fig 3D), single replicates” value ([6]; A549 CD8 A (activated CD8), divided by average of all conditions) was 0.4059 and 0.7122 and 0.4707, the “IL-33 expression in co-cultures” value ([6]; A549 with activated CD8 cells) was “strong inhibition of IL-33 expression” and the “neutrophils stained positively by ROS fluorescent indicator (Fig 4C), single replicates” value ([7]; GM-CSF 20 ng/ml and LPS 1 μg/ml, 2 h) was 52 and 10 and 17 and 22 and 2 and 9. For the same molecule, the “ROS accumulation in neutrophils” value ([7]; GMCSF/LPS stimulation) was “reduced ROS accumulation”.
